US10751339B2, “Substituted aminopyrimidine compounds and methods of use” (SUNSHINE LAKE PHARMA CO., LTD., priority 2018, dated 2020)

How the values were obtained:
[1] = Compound stability in rat liver microsomes; type: in vitro ADME; details: for CLint scaled at 5 μM: liver microsomes, in vivo CLint extrapolated from rat liver microsome incubation; for CLint scaled at 5 μM / half-life at 5 μM: pH 7.4; for half-life at 5 μM: read-out: Rat T1/2
Protocol: (§1) Human or rat liver microsomes incubations were conducted in duplicate in polypropylene tubes. The typical incubation mixtures consisted of human or rat liver microsomes (0.5 mg protein/mL), compounds of interest (5 μM) and NADPH (1.0 mM) in a total volume of 200 μL potassium phosphate buffer (PBS, 100 mM, pH 7.4). Compounds were dissolved in DMSO and diluted with PBS such that the final concentration of DMSO was 0.05%. The enzymatic reactions were commenced with the addition of protein after a 3-min preincubation and incubated in a water bath open to the air at 37° C. Reactions were terminated at various time points (0, 5, 10, 15, 30, 60 min) by adding equal volume of ice-cold acetonitrile. The samples were stored at −80° C. until LC/MS/MS assays.
(§2) The concentrations of compounds in the incubation mixtures of human or rat liver microsomes were determined by a LC/MS/MS method. The ranges of the linearity in the concentration range were determined for each tested compounds.
(§3) A parallel incubation was performed using denatured microsomes as the negative control, and reactions were terminated at various time points (0, 15, 60 min) after incubation at 37° C.
(§4) Dextromethorphan (70 μM) was selected as the positive control, and reactions were terminated at various time points (0, 5, 10, 15, 30, 60 min) after incubation at 37° C. Both positive and negative control samples were included in each assay to ensure the integrity of the microsomal incubation system.
(§5) The concentrations of compounds in human or rat liver microsome incubations were plotted as a percentage of the relevant zero time point control for each reaction.

[2] = Pharmacokinetic profiles in rats; type: in vivo, rat; details: for clearance / AUC(0-t) / half-life / Vd: iv dosing 1 mg/kg; for AUC(0-t) / half-life / Vd / bioavailability: rat, plasma; for Vd: read-out: Vss; for bioavailability: oral bioavailability
Protocol: The compounds disclosed herein are assessed in pharmacokinetic studies in mice, rats, dogs or monkeys. The compounds are administered as a water solution, 2% HPMC+1% TWEEN®80 in water solution, 5% DMSO+5% solutol in saline, 4% MC suspension or capsule. For the intravenous administration, the animals are generally given at 1 or 2 mg/kg dose. For the oral (p.o.) dosing, mice and rats are generally given 5 or 10 mg/kg dose, and dogs and monkeys are generally given 10 mg/kg dose. The blood samples (0.3 mL) are drawn at 0.25, 0.5, 1.0, 2.0, 3.0, 4.0, 6.0, 8.0, 12 and 24 h time points or 0.083, 0.25, 0.5, 1.0, 2.0, 4.0, 6.0, 8.0 and 24 h time points and centrifuged at 3,000 or 4000 rpm for 2 to 10 min. The plasma solutions are collected, stored at −20° C. or −70° C. until analyzed by LC/MS/MS as described above.

[3] = Compound stability in human liver microsomes; type: in vitro ADME; details: pH 7.4; for CLint scaled at 5 μM: liver microsomes, in vivo CLint extrapolated from human liver microsome incubation; for half-life at 5 μM: human liver microsomes 0.5 mg protein/mL, compound 5 μM, NADPH, 37° C., read-out: Human T1/2
Protocol: as §1, §2, §3, §4, §5

[4] = rat liver microsomes 0.5 mg protein/mL, compound 5 μM, NADPH, 37° C.

CLint scaled at 5 μM [1] [L/h/kg] | half-life at 5 μM [1, 4] [min] | clearance [2] [L/h/kg] | AUC(0-t) [2] [µg·h/mL] | half-life [2] [min] | Vd [2] [L/kg] | bioavailability [2] [%] | CLint scaled at 5 μM [3] [L/h/kg] | half-life at 5 μM [3] [min] | Rat T1/2 [1, 4] | SMILES
4.79 | 31.1 | 1.38 | 0.722 | 43.8 | 1.11 | 70.8 | 5.36 | 19.4 |  | C#Cc1cccc2nc([C@H](C)Nc3ncnc(N)c3-c3nnn(C)n3)n(C3CC3)c(=O)c12 [Example 52, (S)-2-(1-((6-amino-5-(2-methyl-2H-tetrazol-5-yl)pyrimidin-4-yl)amino)ethyl)-3-cyclopropyl-5-ethynylquinazolin-4(3H)-one]
3.16 | 47.1 | 1.28 | 0.79 | 45.6 | 1.35 | 40.4 | 2.43 | 43 |  | Cc1nc(-c2c(N)ncnc2N[C@@H](C)c2nc3cccc(C#CCO)c3c(=O)n2-c2ccccc2)no1 [Example 38, (S)-2-(1-((6-amino-5-(5-methyl-1,2,4-oxadiazol-3-yl)pyrimidin-4-yl)amino)ethyl)-5-(3-hydroxyprop-1-yn-1-yl)-3-phenylquinazolin-4(3H)-one]
0.916 | 163 | 1.16 | 0.862 | 36.6 | 0.61 | 38.3 | 0.38 | 274 |  | Cc1nnc(-c2c(N)ncnc2N[C@@H](C)c2nc3cccc(C#CC(C)O)c3c(=O)n2-c2ccccc2)o1 (stereo partly drawn) [Example 7, 2-((S)-1-((6-amino-5-(5-methyl-1,3,4-oxadiazol-2-yl)pyrimidin-4-yl)amino)ethyl)-5-(3-hydroxybut-1-yn-1-yl)-3-phenylquinazolin-4(3H)-one]
2.51 | 59.5 | 1.52 | 0.675 | 58.2 | 1.83 | 83.7 | 3.75 | 27.8 |  | CC#Cc1cccc2nc([C@H](C)Nc3ncnc(N)c3-c3nnc(C)o3)n(C3CC3)c(=O)c12 [Example 22]
0.15 | 975 | 0.55 | 1.44 | 194 | 2.38 | 120 | 0.858 | 122 |  | Cc1noc(-c2c(N)ncnc2N[C@@H](C)c2nc3cccc(C#CC(C)(C)O)c3c(=O)n2-c2ccccc2)n1 [Example 1, (S)-2-(1-((6-amino-5-(3-methyl-1,2,4-oxadiazol-5-yl)pyrimidin-4-yl)amino)ethyl)-5-(3-hydroxy-3-methylbut-1-yn-1-yl)-3-phenylquinazolin-4(3H)-one]
10.2 | 14.7 |  |  |  |  |  | 17.8 | 5.85 |  | C#Cc1cccc2nc([C@H](C)Nc3ncnc(N)c3-c3nc(C)no3)n(-c3ccccc3)c(=O)c12 [Example 44, (S)-2-(1-((6-amino-5-(3-methyl-1,2,4-oxadiazol-5-yl)pyrimidin-4-yl)amino)ethyl)-5-ethynyl-3-phenylquinazolin-4(3H)-one]
10.3 | 14.5 |  |  |  |  |  | 18.6 | 5.6 |  | C#Cc1cccc2nc([C@H](C)Nc3ncnc(N)c3-c3nnn(C)n3)n(-c3ccccc3)c(=O)c12 [Example 48, (S)-2-(1-((6-amino-5-(2-methyl-2H-tetrazol-5-yl)pyrimidin-4-yl)amino)ethyl)-5-ethynyl-3-phenylquinazolin-4(3H)-one]
5.23 | 28.5 |  |  |  |  |  | 18.1 | 5.77 |  | C#Cc1cccc2nc([C@H](C)Nc3ncnc(N)c3-c3nnc(C)o3)n(-c3ccccc3)c(=O)c12 [Example 45, (S)-2-(1-((6-amino-5-(5-methyl-1,3,4-oxadiazol-2-yl)pyrimidin-4-yl)amino)ethyl)-5-ethynyl-3-phenylquinazolin-4(3H)-one]
8.39 | 17.8 |  |  |  |  |  | 17.2 | 6.05 |  | C#Cc1cccc2nc([C@H](C)Nc3ncnc(N)c3-c3noc(C)n3)n(-c3ccccc3)c(=O)c12 [Example 47, (S)-2-(1-((6-amino-5-(5-methyl-1,2,4-oxadiazol-3-yl)pyrimidin-4-yl)amino)ethyl)-5-ethynyl-3-phenylquinazolin-4(3H)-one]
2.58 | 57.7 |  |  |  |  |  | 1.73 | 60.2 |  | C[C@H](Nc1ncnc(N)c1-c1nnn(C)n1)c1nc2cccc(C#CCO)c2c(=O)n1-c1ccccc1 [Example 39, (S)-2-(1-((6-amino-5-(2-methyl-2H-tetrazol-5-yl)pyrimidin-4-yl)amino)ethyl)-5-(3-hydroxyprop-1-yn-1-yl)-3-phenylquinazolin-4(3H)-one]
4.25 | 35 |  |  |  |  |  | 4.47 | 23.4 |  | C#Cc1cccc2nc([C@H](C)Nc3ncnc(N)c3-c3ncn(C)n3)n(C3CC3)c(=O)c12 [Example 53, (S)-2-(1-((6-amino-5-(1-methyl-1H-1,2,4-triazol-3-yl)pyrimidin-4-yl)amino)ethyl)-3-cyclopropyl-5-ethynylquinazolin-4(3H)-one]
0.335 | 445 | 0.50 | 1.87 | 112 | 1.04 | 134 | 0.348 | 300 |  | C[C@H](Nc1ncnc(N)c1-c1nnn(C)n1)c1nc2cccc(C#CC(C)(C)O)c2c(=O)n1-c1ccccc1 [Example 4, (S)-2-(1-((6-amino-5-(2-methyl-2H-tetrazol-5-yl)pyrimidin-4-yl)amino)ethyl)-5-(3-hydroxy-3-methylbut-1-yn-1-yl)-3-phenylquinazolin-4(3H)-one]
6.69 | 22.3 |  |  |  |  |  | 6.28 | 16.6 |  | C#Cc1cccc2nc([C@H](C)Nc3ncnc(N)c3-c3nc(C)no3)n(C3CC3)c(=O)c12 [Example 43, (S)-2-(1-((6-amino-5-(3-methyl-1,2,4-oxadiazol-5-yl)pyrimidin-4-1)amino)ethyl)-3-cyclopropyl-5-ethynylquinazolin-4(3H)-one]
0.285 | 523 | 0.78 | 1.21 | 106 |  | 146 | 0.568 | 184 |  | Cc1nc(-c2c(N)ncnc2N[C@@H](C)c2nc3cccc(C#CC(C)(C)O)c3c(=O)n2-c2ccccc2)no1 [Example 3, (S)-2-(1-((6-amino-5-(5-methyl-1,2,4-oxadiazol-3-yl)pyrimidin-4-yl)amino)ethyl)-5-(3-hydroxy-3-methylbut-1-yn-1-yl)-3-phenylquinazolin-4(3H)-one]
 |  | 0.68 | 1.37 | 85.2 | 1.3 | 106 | 0.23 | 452 | ∞ | Cc1nnc(-c2c(N)ncnc2N[C@@H](C)c2nc3cccc(C#CC(C)(C)O)c3c(=O)n2-c2ccccc2)o1 [Example 2, (S)-2-(1-((6-amino-5-(5-methyl-1,3,4-oxadiazol-2-yl)pyrimidin-4-yl)amino)ethyl)-5-(3-hydroxy-3-methylbut-1-yn-1-yl)-3-phenylquinazolin-4(3H)-one]
3.65 | 40.8 |  |  |  |  |  | 2.95 | 35.3 |  | C[C@H](Nc1ncnc(N)c1-c1ncn(C)n1)c1nc2cccc(C#CCO)c2c(=O)n1-c1ccccc1 [Example 46, (S)-2-(1-((6-amino-5-(1-methyl-1H-1,2,4-triazol-3-yl)pyrimidin-4-yl)amino)ethyl)-5-(3-hydroxyprop-1-yn-1-yl)-3-phenylquinazolin-4(3H)-one]
